ChEMBL document CHEMBL1150083, “The Racemization of Crinitol. Resolution of Crinitol and of 3-Nonen-2-ol Enantiomers by Recycle-HPLC, via MTPA Esters” (J Nat Prod, 1995)
The source made the active and inactive calls.

How the values were obtained:
Format in all cases: functional, organism-based
Cutibacterium acnes = experiment: Antimicrobial activity against Propionibacterium acnes
Bacillus subtilis = experiment: Antimicrobial activity against Bacillus subtilis
[1] = system: Corynebacterium ammoniagenes; experiment: Antimicrobial activity against Brevibacterium ammoniagenes
Streptococcus mutans = experiment: Antimicrobial activity against Streptococcus mutans
Staphylococcus aureus = experiment: Antimicrobial activity against Staphylococcus aureus

Measured: Activity

CC(C)=CCC/C(C)=C/[C@@H](O)C/C(C)=C/CC/C(C)=C/CO
active: all assays above

CC(C)=CCC/C(C)=C/[C@H](O)C/C(C)=C/CC/C(C)=C/CO
active: all assays above
